Measurements from patent US7803792B2, “Quaternary ammonium compounds” (Asahi Kasei Pharma Corporation, priority 2002, dated 2010).
pIC50: −log10 of the molar value.

Legend:
human IBAT = target: T1, human IBAT (Homo sapiens, UniProt Q12908); experiment: In vitro assay of temporarily expressed human IBAT transporter using Cos 7 cells (Test Example 8); format: cell-based; details: Cos 7 cells temporarily expressing human IBAT; [3H] taurocholate 8 μM, 37° C., 60 minutes
T1 construct: expressed in transfected cells; host or cells: Cos 7
T1 sequence (Q12908 1-348): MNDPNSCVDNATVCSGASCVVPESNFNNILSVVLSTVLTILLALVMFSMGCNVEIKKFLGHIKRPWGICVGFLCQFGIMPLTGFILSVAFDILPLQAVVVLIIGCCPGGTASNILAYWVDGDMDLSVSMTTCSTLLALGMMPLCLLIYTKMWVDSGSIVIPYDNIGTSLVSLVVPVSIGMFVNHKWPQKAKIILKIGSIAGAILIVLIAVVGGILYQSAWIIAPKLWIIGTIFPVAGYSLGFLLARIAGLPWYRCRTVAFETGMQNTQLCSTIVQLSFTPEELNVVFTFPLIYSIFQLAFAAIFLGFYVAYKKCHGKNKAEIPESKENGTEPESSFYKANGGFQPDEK
Summary of the method: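 Cos 7 cells transiently transfected with human or rat IBAT cDNA, assayed one day later in Hank's buffer with 25 mM glucose, 10 mM HEPES (pH 7.4) plus compound. Uptake of 8 μM [^3H]taurocholate over 60 min at 37 °C, stopped with 1 mM taurocholate washes; lysate radioactivity by scintillation counting.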

KKAy/Ta Jcl obese mice = experiment: Obesity and fatty liver model (Test Example 6); format: in vivo, mouse; details: average ± standard error; for Body Weight (g) 2 weeks later / Liver triglyceride / Body Weight (g) Variation amount: 1 mg/kg once a day for 2 weeks; for Liver triglyceride: controls 94 ± 18 / 103 ± 19; for Body Weight (g) Variation amount: controls −0.8 ± 0.5 / 0.7 ± 0.4; for Body Weight (g) Before administration: baseline of the 1 mg/kg group
Description: Obesity and Fatty Liver Model
The obesity and fatty liver model in this test example was handled by referring to the method described in WO02/09757.
That is, 10 weeks old KKA^y/Ta Jcl male mice were used as obese mice (N=from 4 to 7). The test compounds dissolved or suspended in an aqueous solution of 1% HCO60 (manufactured by NIPPON CHEMICALS COMPANY, LTD.) and an aqueous solution of 1% HCO60 (manufactured by NIPPON CHEMICALS COMPANY, LTD.) as a control group were administered once a day for 2 weeks continuously. The weights of the mice were measured every day and compared with the weights measured on the day before the administration. On the day next to the final day of administration of the drug, the livers were extracted and concentrations of triglycerides in the liver tissues were measured by using a measurement kit (TRIGLYCERIDE TEST WAKO, manufactured by WAKO PURE CHEMICAL […], LTD.).

Caco 2 cells = experiment: Toxicity with respect to alimentary canal: cytotoxicity to Caco 2, LDH activity (Test Example 12); format: cell-based, human; details: LDH activity after 2 hours, relative to cytolytic agent = 100%
Summary of the method: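 Human Caco 2 intestinal cells, cultured 48 hours after seeding at 10,000 cells/well, received test compounds diluted in medium. LDH released into the medium after 2 hours was measured and expressed relative to cytolytic-agent-lysed cells (100%) as cytotoxicity.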

[1] = test system: steatohepatitis model rats; experiment: Steatohepatitis model, choline-deficient diet (Test Example 15); format: in vivo, rat; details: 3 mg/kg oral once a day for 2 weeks; n = 4; average ± standard error
Excerpt: In this test example, the steatohepatitis model was examined referring to the method of Okan A., et al. (Dig Dis Sci 47:2389-2397, 2002).
That is, 7 weeks old Wistar rats were fed with a choline-deficient diet (manufactured by Oriental Yeast Co., Ltd.) for 2 weeks to prepare a steatohepatitis model. A suspension of a test compound in an aqueous solution of 0.5% methyl cellulose (manufactured by WAKO PURE CHEMICAL […], LTD.) and an aqueous solution of 0.5% methyl cellulose (manufactured by WAKO PURE CHEMICAL […], LTD.) as a control were orally administered once a day for consecutive 2 weeks. On the day next to the last day of administration, a blood sample was taken from the abdominal aorta and AST (GOT) and ALT (GPT) in the blood were measured by using measuring kits (GOTII-HA TEST WAKO and GPTII-HA TEST WAKO, respectively, the both were manufactured by WAKO PURE CHEMICAL […], LTD.) on an auto analyzer (NITTECH ANALYZER SUPER Z818).

| SMILES | pIC50 (human IBAT) | Body Weight (g) 2 weeks later (KKAy/Ta Jcl obese mice) | Liver triglyceride (KKAy/Ta Jcl obese mice) | Body Weight (g) Variation amount (KKAy/Ta Jcl obese mice) | Body Weight (g) Before administration (KKAy/Ta Jcl obese mice) | Toxicity (%) to Caco 2 (Caco 2 cells; 3 μM) | Toxicity (%) to Caco 2 (Caco 2 cells; 10 μM) | Toxicity (%) to Caco 2 (Caco 2 cells; 30 μM) | ALT [1] | AST [1] |
| --- | --- | --- | --- | --- | --- | --- | --- | --- | --- | --- |
| CCCCC1(CCCC)CS(=O)(=O)c2ccc(N(C)C)cc2C(c2cccc(NC(=S)CCCCC[N+]34CCC(CC3)CC4)c2)N1.[Br-] (stereo not drawn) [Example 1, 1-{5-[3-(3,3-Dibutyl-7-dimethylamino-1,1-dioxo-2,3,4,5-tetrahydro-1,4-benzothiazepin-5-yl)phenylthiocarbamoyl]pentyl}-1-azoniabicyclo[2.2.2]octane bromide] | 7.60 | – | – | – | – | – | – | – | – | – |
| CCCCC1(CCCC)CS(=O)(=O)c2ccc(N(C)C)cc2C(c2cccc(NC(=S)Nc3ccc(C[N+](C)(C)Cc4ccccc4)cc3)c2)N1.[Br-] (stereo not drawn) [Example 3440] | 7.43 | 43.9 ± 1.8 g | 88 ± 6 mg/g | -0.7 ± 1.0 g | 44.6 ± 0.8 g | <1% | <1% | <1% | 167 ± 93 IU/L | 125 ± 34 IU/L |
| C#CC[N+](C)(Cc1ccccc1)Cc1ccc(NC(=S)Nc2cccc(C3NC(CCCC)(CCCC)CS(=O)(=O)c4ccc(N(C)C)cc43)c2)cc1 (stereo not drawn) [Example 3448] | 7.43 | 42.1 ± 3.2 g | 74 ± 8 mg/g | -2.0 ± 0.7 g | 44.1 ± 0.7 g | <1% | <1% | <1% | 143 ± 79 IU/L | 134 ± 23 IU/L |
| CCCCC1(CCCC)CS(=O)(=O)c2ccc(N(C)C)cc2C(c2cccc(NC(=S)Nc3ccc(C[N+]4(Cc5ccccc5)CCC(O)CC4)cc3)c2)N1.[Br-] (stereo not drawn) [Example 3605] | 7.41 | 41.4 ± 1.0 g | 65 ± 7 mg/g | -1.5 ± 0.4 g | 42.9 ± 1.1 g | <1% | <1% | <1% | 121 ± 36 IU/L | 80 ± 34 IU/L |
| CCCCC1(CCCC)CS(=O)(=O)c2ccc(N(C)C)cc2C(c2cccc(NC(=S)Nc3ccc(C[N+]45CCC(c6ccccc6)(CC4)CC5)cc3)c2)N1.[Br-] (stereo not drawn) [Example 3696] | 7.41 | 42.2 ± 2.2 g | 76 ± 12 mg/g | -1.3 ± 0.3 g | 43.5 ± 1.3 g | <1% | <1% | <1% | 145 ± 34 IU/L | 98 ± 23 IU/L |
| CCCCC1(CCCC)CS(=O)(=O)c2ccc(N(C)C)cc2C(c2cccc(NC(=S)Nc3ccc(C[n+]4ccc(C(C)(C)C)cc4)cc3)c2)N1.[Br-] (stereo not drawn) [Example 3713] | 7.43 | 41.5 ± 2.4 g | 59 ± 33 mg/g | -2.5 ± 0.6 g | 44.0 ± 1.1 g | <1% | <1% | <1% | 118 ± 36 IU/L | 77 ± 37 IU/L |
| CCCCC1(CCCC)CS(=O)(=O)c2ccc(N(C)C)cc2C(c2cccc(NC(=S)Nc3ccc(C[n+]4cccc(CCCO)c4)cc3)c2)N1.[Br-] (stereo not drawn) [Example 3747] | 7.35 | 42.2 ± 1.8 g | 47 ± 23 mg/g | -2.1 ± 1.0 g | 44.3 ± 0.8 g | <1% | <1% | <1% | 102 ± 50 IU/L | 63 ± 86 IU/L |
| CCCCC1(CCCC)CS(=O)(=O)c2ccc(N(C)C)cc2C(c2cccc(NC(=S)Nc3ccc(C[n+]4cccc(CCC(=O)OC)c4)cc3)c2)N1.[Br-] (stereo not drawn) [Example 3752] | 7.39 | 41.5 ± 1.0 g | 56 ± 23 mg/g | -2.3 ± 0.9 g | 43.8 ± 1.2 g | <1% | <1% | <1% | 88 ± 45 IU/L | 69 ± 98 IU/L |
| CCCCC1(CCCC)CS(=O)(=O)c2ccc(N(C)C)cc2C(c2cccc(NC(=S)Nc3ccc(C[n+]4ccccc4CCC)cc3)c2)N1.[Br-] (stereo not drawn) [Example 5408] | 7.49 | 42.2 ± 1.6 g | 70 ± 11 mg/g | -1.8 ± 0.5 g | 44.0 ± 0.9 g | <1% | <1% | <1% | 149 ± 38 IU/L | 103 ± 45 IU/L |
